Measured values published in PMC8632988, “Inhibition of SYK and cSrc kinases can protect bone and cartilage in preclinical models of osteoarthritis and rheumatoid arthritis” (Scientific Reports, 2021).
Where two headings read alike, the source gives them in different places.

Tests used:
Assay in all cases: Kinase selectivity profile assay
Format in all cases: biochemical
AXL = molecular target: T1, AXL (Homo sapiens, UniProt P30530); settings: 500 nM; relative to DMSO; read-out: Residual enzymatic activity
T1 construct: purchased Reaction Biology Corporation
Experimental: (§1) The activity of MT-SYK-03 against cSrc kinase and selectivity profile towards other 341 kinases was determined at Reaction Biology Corporation (Malvern, PA, USA) using the standard kinase assay protocol. […]; unbound phosphate was removed by extensive washing of filters in phosphoric acid. Kinase activity data was expressed as the percent remaining kinase activity in test samples compared to vehicle (dimethyl sulfoxide) reactions based on the radioactivity of reaction products (see Table S2). Experiment was replicated twice.

CAMKK1 = molecular target: T2, CAMKK1 (Homo sapiens, UniProt Q8N5S9); settings: 500 nM; relative to DMSO; read-out: Residual enzymatic activity
T2 construct: purchased Reaction Biology Corporation
Experimental: as §1

CK1epsilon = molecular target: T3, CK1epsilon (Homo sapiens, UniProt P49674); settings: 500 nM; relative to DMSO; read-out: Residual enzymatic activity
T3 construct: purchased Reaction Biology Corporation
T3 sequence (P49674 whole entry): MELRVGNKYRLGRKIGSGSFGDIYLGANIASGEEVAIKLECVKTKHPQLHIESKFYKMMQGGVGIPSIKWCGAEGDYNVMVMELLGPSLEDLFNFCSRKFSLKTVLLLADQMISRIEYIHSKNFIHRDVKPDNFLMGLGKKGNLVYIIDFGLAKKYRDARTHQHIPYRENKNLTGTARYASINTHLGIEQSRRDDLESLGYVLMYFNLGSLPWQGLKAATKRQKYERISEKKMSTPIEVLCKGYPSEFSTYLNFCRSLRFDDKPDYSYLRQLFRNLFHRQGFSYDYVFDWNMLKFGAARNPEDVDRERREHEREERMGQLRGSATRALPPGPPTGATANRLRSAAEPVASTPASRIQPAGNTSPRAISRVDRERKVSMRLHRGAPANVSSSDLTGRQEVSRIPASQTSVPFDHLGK
Experimental: as §1

CK1g2 = molecular target: T4, CK1g2 (Homo sapiens, UniProt P78368); settings: 500 nM; relative to DMSO; read-out: Residual enzymatic activity
T4 construct: purchased Reaction Biology Corporation
Experimental: as §1

DYRK1/DYRK1A = molecular target: T5, DYRK1/DYRK1A (Homo sapiens, UniProt Q13627); settings: 500 nM; relative to DMSO; read-out: Residual enzymatic activity
T5 construct: purchased Reaction Biology Corporation
Experimental: as §1

EPHA4 = molecular target: T6, EPHA4 (Homo sapiens, UniProt P54764); settings: 500 nM, relative to DMSO; for remaining activity at 0.5 µM: read-out: Residual enzymatic activity
T6 construct: purchased Reaction Biology Corporation
T6 sequence (P54764 20-986): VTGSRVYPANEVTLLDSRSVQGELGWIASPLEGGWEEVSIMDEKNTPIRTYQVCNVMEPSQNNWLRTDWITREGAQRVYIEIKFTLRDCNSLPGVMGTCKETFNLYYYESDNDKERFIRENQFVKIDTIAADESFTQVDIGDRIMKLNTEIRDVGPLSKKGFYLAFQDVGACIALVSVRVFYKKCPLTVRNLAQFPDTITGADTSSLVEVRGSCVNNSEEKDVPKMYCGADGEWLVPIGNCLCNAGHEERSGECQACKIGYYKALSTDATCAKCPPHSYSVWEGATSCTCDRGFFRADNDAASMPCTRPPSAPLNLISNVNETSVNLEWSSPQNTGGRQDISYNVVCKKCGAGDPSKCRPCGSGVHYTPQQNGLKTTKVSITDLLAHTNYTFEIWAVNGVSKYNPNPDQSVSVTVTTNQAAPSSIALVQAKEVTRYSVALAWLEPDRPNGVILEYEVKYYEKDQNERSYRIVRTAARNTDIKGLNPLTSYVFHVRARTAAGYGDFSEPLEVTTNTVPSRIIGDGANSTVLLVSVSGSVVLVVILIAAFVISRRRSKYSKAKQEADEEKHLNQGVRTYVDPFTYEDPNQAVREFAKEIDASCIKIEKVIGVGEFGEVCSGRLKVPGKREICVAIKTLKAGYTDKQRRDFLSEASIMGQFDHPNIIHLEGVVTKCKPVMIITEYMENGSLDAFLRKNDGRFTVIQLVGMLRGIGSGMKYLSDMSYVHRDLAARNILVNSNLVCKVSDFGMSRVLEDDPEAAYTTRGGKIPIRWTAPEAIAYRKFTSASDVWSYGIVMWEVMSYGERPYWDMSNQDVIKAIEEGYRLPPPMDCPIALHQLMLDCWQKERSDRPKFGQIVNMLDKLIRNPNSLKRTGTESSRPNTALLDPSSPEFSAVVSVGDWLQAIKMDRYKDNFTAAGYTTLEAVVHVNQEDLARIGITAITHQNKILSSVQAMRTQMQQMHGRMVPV
Experimental: as §1

EPHA7 = molecular target: T7, EPHA7 (Homo sapiens, UniProt Q15375); settings: 500 nM, relative to DMSO; for remaining activity at 0.5 µM: read-out: Residual enzymatic activity
T7 construct: purchased Reaction Biology Corporation
T7 sequence (Q15375 28-998): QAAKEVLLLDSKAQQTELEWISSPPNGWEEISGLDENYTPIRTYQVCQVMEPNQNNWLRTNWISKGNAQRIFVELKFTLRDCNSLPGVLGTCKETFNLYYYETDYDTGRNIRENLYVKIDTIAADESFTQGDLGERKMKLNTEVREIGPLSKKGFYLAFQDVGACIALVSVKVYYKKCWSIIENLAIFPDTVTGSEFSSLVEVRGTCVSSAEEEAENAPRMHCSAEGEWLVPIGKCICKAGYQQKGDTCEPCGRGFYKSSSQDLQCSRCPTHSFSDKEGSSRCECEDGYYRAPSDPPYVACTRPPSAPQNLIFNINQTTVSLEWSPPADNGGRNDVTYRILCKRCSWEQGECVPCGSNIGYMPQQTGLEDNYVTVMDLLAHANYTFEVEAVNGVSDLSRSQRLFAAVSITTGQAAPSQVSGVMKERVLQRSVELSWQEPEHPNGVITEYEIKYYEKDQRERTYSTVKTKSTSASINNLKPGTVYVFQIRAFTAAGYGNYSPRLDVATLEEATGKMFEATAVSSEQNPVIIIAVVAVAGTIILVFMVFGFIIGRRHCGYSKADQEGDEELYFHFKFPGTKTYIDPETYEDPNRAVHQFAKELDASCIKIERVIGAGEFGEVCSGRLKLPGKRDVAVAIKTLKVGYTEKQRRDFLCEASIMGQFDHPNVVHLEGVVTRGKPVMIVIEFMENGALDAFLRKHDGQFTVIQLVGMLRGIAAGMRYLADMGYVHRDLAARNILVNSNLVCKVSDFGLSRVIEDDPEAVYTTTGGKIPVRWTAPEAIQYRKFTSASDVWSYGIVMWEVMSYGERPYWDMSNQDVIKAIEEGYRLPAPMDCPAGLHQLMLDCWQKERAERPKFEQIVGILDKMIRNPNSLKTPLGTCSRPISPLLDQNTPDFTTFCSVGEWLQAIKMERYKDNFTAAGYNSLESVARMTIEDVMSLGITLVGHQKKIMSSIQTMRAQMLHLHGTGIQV
Experimental: as §1

EPHB4 = molecular target: T8, EPHB4 (Homo sapiens, UniProt P54760); settings: 500 nM, relative to DMSO; for remaining activity at 0.5 µM: read-out: Residual enzymatic activity
T8 construct: purchased Reaction Biology Corporation
T8 sequence (P54760 16-987): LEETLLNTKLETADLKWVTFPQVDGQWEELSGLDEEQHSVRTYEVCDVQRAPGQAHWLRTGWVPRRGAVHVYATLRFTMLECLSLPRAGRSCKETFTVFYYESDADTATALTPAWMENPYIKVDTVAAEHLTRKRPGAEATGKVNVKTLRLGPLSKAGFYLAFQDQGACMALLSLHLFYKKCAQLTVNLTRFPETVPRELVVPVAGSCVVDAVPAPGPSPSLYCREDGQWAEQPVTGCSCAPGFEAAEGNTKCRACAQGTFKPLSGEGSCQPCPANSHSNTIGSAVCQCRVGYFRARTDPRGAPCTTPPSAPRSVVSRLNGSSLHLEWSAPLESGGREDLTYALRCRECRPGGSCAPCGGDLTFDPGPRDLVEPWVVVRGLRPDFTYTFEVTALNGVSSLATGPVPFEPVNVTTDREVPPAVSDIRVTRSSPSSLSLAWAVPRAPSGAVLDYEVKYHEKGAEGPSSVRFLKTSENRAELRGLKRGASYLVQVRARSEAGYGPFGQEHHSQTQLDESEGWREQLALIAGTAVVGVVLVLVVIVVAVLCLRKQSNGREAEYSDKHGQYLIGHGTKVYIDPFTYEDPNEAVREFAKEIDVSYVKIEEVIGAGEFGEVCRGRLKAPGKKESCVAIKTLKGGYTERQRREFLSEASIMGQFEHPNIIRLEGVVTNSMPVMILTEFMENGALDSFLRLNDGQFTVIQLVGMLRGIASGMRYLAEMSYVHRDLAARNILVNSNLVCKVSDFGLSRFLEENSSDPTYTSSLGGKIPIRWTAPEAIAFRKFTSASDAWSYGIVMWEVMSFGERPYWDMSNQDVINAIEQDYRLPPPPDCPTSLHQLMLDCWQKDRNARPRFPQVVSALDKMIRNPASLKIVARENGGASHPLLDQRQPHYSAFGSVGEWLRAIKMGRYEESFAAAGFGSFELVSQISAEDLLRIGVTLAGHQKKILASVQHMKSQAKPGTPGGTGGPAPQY
Experimental: as §1

ERK7/MAPK15 = molecular target: T9, ERK7/MAPK15 (Homo sapiens, UniProt Q8TD08); settings: read-out: Residual enzymatic activity
T9 construct: purchased Reaction Biology Corporation
Experimental: as §1

FMS = molecular target: T10, FMS (Homo sapiens, UniProt P07333); settings: 500 nM; relative to DMSO; read-out: Residual enzymatic activity
T10 construct: purchased Reaction Biology Corporation
Experimental: as §1

GRK2 = molecular target: T11, GRK2 (Homo sapiens, UniProt P25098); settings: 500 nM; relative to DMSO; read-out: Residual enzymatic activity
T11 construct: purchased Reaction Biology Corporation
Experimental: as §1

JAK3 = molecular target: T12, JAK3 (Homo sapiens, UniProt P52333); settings: 500 nM; relative to DMSO; read-out: Residual enzymatic activity
T12 construct: purchased Reaction Biology Corporation
Experimental: as §1

LYN = molecular target: T13, LYN (Homo sapiens, UniProt P07948); settings: for remaining activity at 0.5 µM: 500 nM, relative to DMSO, read-out: Residual enzymatic activity
T13 construct: purchased Reaction Biology Corporation (assay service)
T13 sequence (P07948 whole entry): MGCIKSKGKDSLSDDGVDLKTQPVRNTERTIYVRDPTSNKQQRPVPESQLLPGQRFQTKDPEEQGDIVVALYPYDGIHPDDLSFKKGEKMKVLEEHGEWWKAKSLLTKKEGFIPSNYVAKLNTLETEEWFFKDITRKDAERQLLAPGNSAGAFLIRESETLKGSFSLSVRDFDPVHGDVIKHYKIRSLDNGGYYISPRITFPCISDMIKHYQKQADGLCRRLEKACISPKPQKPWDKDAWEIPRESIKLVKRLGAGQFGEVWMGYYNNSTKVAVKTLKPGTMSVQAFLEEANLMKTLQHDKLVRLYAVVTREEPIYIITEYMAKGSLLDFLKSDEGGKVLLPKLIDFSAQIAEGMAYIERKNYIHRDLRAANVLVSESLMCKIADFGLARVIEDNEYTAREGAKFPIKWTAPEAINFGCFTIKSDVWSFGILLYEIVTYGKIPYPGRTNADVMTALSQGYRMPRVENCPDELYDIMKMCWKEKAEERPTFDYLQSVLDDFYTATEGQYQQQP
Experimental: as §1

MARK4 = molecular target: T14, MARK4 (Homo sapiens, UniProt Q96L34); settings: 500 nM; relative to DMSO; read-out: Residual enzymatic activity
T14 construct: purchased Reaction Biology Corporation
Experimental: as §1

MKK4 = molecular target: T15, MKK4 (Homo sapiens, UniProt P45985); settings: 500 nM; relative to DMSO; read-out: Residual enzymatic activity
T15 construct: purchased Reaction Biology Corporation
Experimental: as §1

MST3/STK24 = molecular target: T16, MST3/STK24 (Homo sapiens, UniProt Q9Y6E0); settings: 500 nM; relative to DMSO; read-out: Residual enzymatic activity
T16 construct: purchased Reaction Biology Corporation
Experimental: as §1

MST4 = molecular target: T17, MST4 (Homo sapiens, UniProt Q9P289); settings: 500 nM; relative to DMSO; read-out: Residual enzymatic activity
T17 construct: purchased Reaction Biology Corporation
T17 sequence (Q9P289 whole entry): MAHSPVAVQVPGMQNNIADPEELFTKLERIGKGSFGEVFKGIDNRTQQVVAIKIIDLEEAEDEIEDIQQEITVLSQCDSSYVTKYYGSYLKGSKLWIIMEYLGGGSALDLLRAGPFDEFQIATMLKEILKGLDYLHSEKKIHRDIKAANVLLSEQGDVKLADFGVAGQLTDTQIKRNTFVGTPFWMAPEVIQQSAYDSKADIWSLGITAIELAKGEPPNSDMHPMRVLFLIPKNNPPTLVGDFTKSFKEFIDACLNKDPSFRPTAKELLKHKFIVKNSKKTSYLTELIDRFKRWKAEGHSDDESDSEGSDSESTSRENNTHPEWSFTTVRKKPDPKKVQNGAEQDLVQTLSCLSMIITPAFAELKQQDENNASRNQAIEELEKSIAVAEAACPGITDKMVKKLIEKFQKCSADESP
Experimental: as §1

MUSK = molecular target: T18, MUSK (Homo sapiens, UniProt O15146); settings: 500 nM; relative to DMSO; read-out: Residual enzymatic activity
T18 construct: purchased Reaction Biology Corporation
T18 sequence (O15146 24-869): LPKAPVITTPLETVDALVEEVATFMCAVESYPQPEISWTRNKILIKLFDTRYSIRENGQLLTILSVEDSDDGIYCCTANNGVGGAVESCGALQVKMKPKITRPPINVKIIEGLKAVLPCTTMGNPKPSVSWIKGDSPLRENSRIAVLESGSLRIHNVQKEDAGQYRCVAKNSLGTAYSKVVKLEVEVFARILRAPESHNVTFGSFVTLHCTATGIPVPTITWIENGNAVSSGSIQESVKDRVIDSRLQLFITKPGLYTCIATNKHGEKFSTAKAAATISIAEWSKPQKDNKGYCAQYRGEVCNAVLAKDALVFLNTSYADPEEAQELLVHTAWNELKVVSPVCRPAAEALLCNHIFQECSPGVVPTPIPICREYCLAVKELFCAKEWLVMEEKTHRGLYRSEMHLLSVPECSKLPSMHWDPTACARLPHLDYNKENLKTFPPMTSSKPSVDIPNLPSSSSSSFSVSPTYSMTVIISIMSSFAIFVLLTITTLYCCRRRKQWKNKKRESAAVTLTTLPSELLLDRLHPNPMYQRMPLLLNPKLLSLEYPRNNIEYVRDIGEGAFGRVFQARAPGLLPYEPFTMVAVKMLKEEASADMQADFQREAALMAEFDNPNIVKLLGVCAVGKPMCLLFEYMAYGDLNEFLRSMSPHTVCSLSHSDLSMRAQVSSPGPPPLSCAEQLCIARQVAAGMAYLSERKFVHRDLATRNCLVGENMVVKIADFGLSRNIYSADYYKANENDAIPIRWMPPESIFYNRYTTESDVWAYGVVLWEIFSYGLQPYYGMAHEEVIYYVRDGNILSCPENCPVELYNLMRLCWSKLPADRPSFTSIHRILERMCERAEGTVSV
Experimental: as §1

PHKg2 = molecular target: T19, PHKg2 (Homo sapiens, UniProt P15735); settings: 500 nM; relative to DMSO; read-out: Residual enzymatic activity
T19 construct: purchased Reaction Biology Corporation
T19 sequence (P15735 whole entry): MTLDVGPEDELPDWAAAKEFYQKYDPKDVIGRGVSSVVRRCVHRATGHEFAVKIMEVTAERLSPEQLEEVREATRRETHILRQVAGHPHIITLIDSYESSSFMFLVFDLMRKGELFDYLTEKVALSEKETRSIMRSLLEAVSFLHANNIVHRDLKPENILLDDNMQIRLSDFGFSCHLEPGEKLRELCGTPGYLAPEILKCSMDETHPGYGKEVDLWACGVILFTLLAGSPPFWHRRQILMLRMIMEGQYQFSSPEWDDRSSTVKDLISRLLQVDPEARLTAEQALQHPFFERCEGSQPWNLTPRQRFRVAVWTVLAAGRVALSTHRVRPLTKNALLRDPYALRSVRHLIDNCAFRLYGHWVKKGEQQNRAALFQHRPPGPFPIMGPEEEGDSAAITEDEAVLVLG
Experimental: as §1

PKCb2 = molecular target: T20, PKCb2 (Homo sapiens, UniProt P05771); settings: 500 nM; relative to DMSO; read-out: Residual enzymatic activity
T20 construct: purchased Reaction Biology Corporation
Experimental: as §1

PKN1/PRK1 = molecular target: T21, PKN1/PRK1 (Homo sapiens, UniProt Q16512); settings: 500 nM; relative to DMSO; read-out: Residual enzymatic activity
T21 construct: purchased Reaction Biology Corporation
Experimental: as §1

TEC = molecular target: T22, TEC (Homo sapiens, UniProt P42680); settings: 500 nM; relative to DMSO; read-out: Residual enzymatic activity
T22 construct: purchased Reaction Biology Corporation
Experimental: as §1

TNIK = molecular target: T23, TNIK (Homo sapiens, UniProt Q9UKE5); settings: 500 nM; relative to DMSO; read-out: Residual enzymatic activity
T23 construct: purchased Reaction Biology Corporation
Experimental: as §1

TSSK2 = molecular target: T24, TSSK2 (Homo sapiens, UniProt Q96PF2); settings: 500 nM; relative to DMSO; read-out: Residual enzymatic activity
T24 construct: purchased Reaction Biology Corporation
Experimental: as §1

VRK1 = molecular target: T25, VRK1 (Homo sapiens, UniProt Q99986); settings: 500 nM; relative to DMSO; read-out: Residual enzymatic activity
T25 construct: purchased Reaction Biology Corporation
Experimental: as §1

VRK2 = molecular target: T26, VRK2 (Homo sapiens, UniProt Q86Y07); settings: read-out: Residual enzymatic activity
T26 construct: purchased Reaction Biology Corporation
T26 sequence (Q86Y07 whole entry): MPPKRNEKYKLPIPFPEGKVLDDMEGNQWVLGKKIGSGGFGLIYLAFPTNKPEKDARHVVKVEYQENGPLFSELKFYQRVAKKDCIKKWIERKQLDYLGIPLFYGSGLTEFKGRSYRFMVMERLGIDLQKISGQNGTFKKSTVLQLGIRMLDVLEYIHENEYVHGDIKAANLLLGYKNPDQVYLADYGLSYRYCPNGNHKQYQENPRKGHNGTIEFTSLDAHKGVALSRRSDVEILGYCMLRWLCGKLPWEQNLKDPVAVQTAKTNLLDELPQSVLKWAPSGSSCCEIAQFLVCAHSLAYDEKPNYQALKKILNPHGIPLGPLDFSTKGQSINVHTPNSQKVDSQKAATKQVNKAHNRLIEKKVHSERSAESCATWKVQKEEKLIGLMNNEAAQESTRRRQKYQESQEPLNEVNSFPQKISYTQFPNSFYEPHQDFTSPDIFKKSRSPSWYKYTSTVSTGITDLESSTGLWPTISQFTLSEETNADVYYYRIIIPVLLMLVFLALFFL
Experimental: as §1

p70S6Kb/RPS6KB2 = molecular target: T27, p70S6Kb/RPS6KB2 (Homo sapiens, UniProt Q9UBS0); settings: 500 nM; relative to DMSO; read-out: Residual enzymatic activity
T27 construct: purchased Reaction Biology Corporation
Experimental: as §1

COc1cc(Nc2ncnc(Nc3cc4c(cn3)NC(=O)C(C)(C)O4)n2)cc(OC)c1OC [MT-SYK-03]
remaining activity at 0.5 µM (AXL): 74.3%
remaining activity at 0.5 µM (CAMKK1): 102%
remaining activity at 0.5 µM (CK1epsilon): 98%
remaining activity at 0.5 µM (CK1g2): 97.2%
remaining activity at 0.5 µM (DYRK1/DYRK1A): 90.5%
Residual enzymatic activity (EPHA4): 58.1%
remaining activity at 0.5 µM (EPHA4): > 54%
Residual enzymatic activity (EPHA7): 58.4%
remaining activity at 0.5 µM (EPHA7): > 54%
Residual enzymatic activity (EPHB4): 64.6%
remaining activity at 0.5 µM (EPHB4): > 54%
remaining activity at 0.5 µM (ERK7/MAPK15; 500 nM, relative to DMSO): 100%
remaining activity at 0.5 µM (FMS): 51.1%
remaining activity at 0.5 µM (GRK2): 101%
remaining activity at 0.5 µM (JAK3): 74.7%
remaining activity at 0.5 µM (LYN): 12.5%
IC50 (LYN; 10-dose mode, threefold serial dilution from 10 μM): 8.8 nM
inhibition at 0.5 µM (LYN; read-out: Inhibition at 500 nM): > 90%
remaining activity at 0.5 µM (MARK4): 92.1%
remaining activity at 0.5 µM (MKK4): 99.8%
remaining activity at 0.5 µM (MST3/STK24): 108%
remaining activity at 0.5 µM (MST4): 112%
remaining activity at 0.5 µM (MUSK): 79.9%
remaining activity at 0.5 µM (PHKg2): 102%
remaining activity at 0.5 µM (PKCb2): 87.7%
remaining activity at 0.5 µM (PKN1/PRK1): 104%
remaining activity at 0.5 µM (TEC): 71%
remaining activity at 0.5 µM (TNIK): 78.6%
remaining activity at 0.5 µM (TSSK2): 106%
remaining activity at 0.5 µM (VRK1): 102%
remaining activity at 0.5 µM (VRK2; 500 nM, relative to DMSO): 129%
remaining activity at 0.5 µM (p70S6Kb/RPS6KB2): 91.4%

COc1cc(Nc2ncc(F)c(Nc3ccc4c(n3)NC(=O)C(C)(C)O4)n2)cc(OC)c1OC [R406, reference compound]
remaining activity at 0.5 µM (AXL): 44.5%
remaining activity at 0.5 µM (CAMKK1): 91.9%
remaining activity at 0.5 µM (CK1epsilon): 104%
remaining activity at 0.5 µM (CK1g2): 101%
remaining activity at 0.5 µM (DYRK1/DYRK1A): 53%
remaining activity at 0.5 µM (EPHA4): 42.8%
remaining activity at 0.5 µM (EPHA7): 10.5%
remaining activity at 0.5 µM (EPHB4): 51.2%
remaining activity at 0.5 µM (ERK7/MAPK15): 77.1%
remaining activity at 0.5 µM (FMS): 17.2%
remaining activity at 0.5 µM (GRK2): 97.2%
remaining activity at 0.5 µM (JAK3): 10.4%
remaining activity at 0.5 µM (LYN): 5.7%
remaining activity at 0.5 µM (MARK4): 46.7%
remaining activity at 0.5 µM (MKK4): 102%
remaining activity at 0.5 µM (MST3/STK24): 95.6%
remaining activity at 0.5 µM (MST4): 94.8%
remaining activity at 0.5 µM (MUSK): 62.1%
remaining activity at 0.5 µM (PHKg2): 93.4%
remaining activity at 0.5 µM (PKCb2): 30.7%
remaining activity at 0.5 µM (PKN1/PRK1): 62.6%
remaining activity at 0.5 µM (TEC): 39.4%
remaining activity at 0.5 µM (TNIK): 83.1%
remaining activity at 0.5 µM (TSSK2): 95.2%
remaining activity at 0.5 µM (VRK1): 98.8%
remaining activity at 0.5 µM (VRK2): 131%
remaining activity at 0.5 µM (p70S6Kb/RPS6KB2): 74.6%
